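In this assay, cells in 96-well plates receive the compound at five concentrations for 48 hours. Endpoints are linearly interpolated between the surrounding concentrations. GI50: concentration for 50% inhibition of growth. TGI is the concentration that stops growth completely.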 *1 amine or outer side, *2 acyl side, *3 side chain or, on linkers, in order; H or OH if unused. Where a SMILES comes first, the peptide text is derived from it. Bridges are numbered along the chain shown (N, C = ends). [ ]: non-standard residue; d: D form. The star is where a group is joined. ξ: configuration not given here. γ4hArg(2R,3R-(OH)2) = N=C(N)NCCC[C@H](N[*:1])[C@@H](O)[C@@H](O)C(=O)[*:2]; Gln(3S,4R-Me2) = C[C@H]([C@H](N)C(=O)O)[C@@H](C)C(N)=O; X43 = CC(C)C[C@H](C)[C@@H](O)[C@@H](C)C(=O)*; X44 = COC(c1ccc(O)cc1)C(N[*:1])C(=O)[*:2]; NMeQ = CN[C@@H](CCC(N)=O)C(=O)O; Thr(3ξ) = CC(O)[C@H](N)C(=O)O; NMeA = CN[C@@H](C)C(=O)O
Experiments:
Assay in all cases: DTP human tumour cell line panel, 48 h
A498 renal = tested on: A498 renal
A549 NSCLC = tested on: A549 NSCLC
ACHN renal = tested on: ACHN renal
BT-549 breast = tested on: BT-549 breast
CAKI-1 renal = tested on: CAKI-1 renal
CCRF-CEM leukemia = tested on: CCRF-CEM leukemia
COLO 205 colon = tested on: COLO 205 colon
DU-145 prostate = tested on: DU-145 prostate
EKVX NSCLC = tested on: EKVX NSCLC
HCC-2998 colon = tested on: HCC-2998 colon
HCT-116 colon = tested on: HCT-116 colon
HCT-15 colon = tested on: HCT-15 colon
HL-60(TB) leukemia = tested on: HL-60(TB) leukemia
HOP-62 NSCLC = tested on: HOP-62 NSCLC
HOP-92 NSCLC = tested on: HOP-92 NSCLC
HS 578T breast = tested on: HS 578T breast
HT29 colon = tested on: HT29 colon
IGROV1 ovarian = tested on: IGROV1 ovarian
K-562 leukemia = tested on: K-562 leukemia
KM12 colon = tested on: KM12 colon
LOX IMVI melanoma = tested on: LOX IMVI melanoma
M14 melanoma = tested on: M14 melanoma
MALME-3M melanoma = tested on: MALME-3M melanoma
MCF7 breast = tested on: MCF7 breast
MDA-MB-231 breast = tested on: MDA-MB-231 breast
MDA-MB-435 = tested on: MDA-MB-435
MOLT-4 leukemia = tested on: MOLT-4 leukemia
NCI-H226 lung = tested on: NCI-H226 lung
NCI-H23 lung = tested on: NCI-H23 lung
NCI-H460 lung = tested on: NCI-H460 lung
NCI-H522 lung = tested on: NCI-H522 lung
NCI/ADR-RES ovarian = tested on: NCI/ADR-RES ovarian
OVCAR-3 ovarian = tested on: OVCAR-3 ovarian
OVCAR-4 ovarian = tested on: OVCAR-4 ovarian
OVCAR-5 ovarian = tested on: OVCAR-5 ovarian
OVCAR-8 ovarian = tested on: OVCAR-8 ovarian
PC-3 prostate = tested on: PC-3 prostate
RPMI-8226 leukemia = tested on: RPMI-8226 leukemia
RXF 393 renal = tested on: RXF 393 renal
SF-268 CNS = tested on: SF-268 CNS
SF-295 CNS = tested on: SF-295 CNS
SF-539 CNS = tested on: SF-539 CNS
SK-MEL-2 melanoma = tested on: SK-MEL-2 melanoma
SK-MEL-28 melanoma = tested on: SK-MEL-28 melanoma
SK-MEL-5 melanoma = tested on: SK-MEL-5 melanoma
SK-OV-3 ovarian = tested on: SK-OV-3 ovarian
SN12C renal = tested on: SN12C renal
SNB-75 CNS = tested on: SNB-75 CNS
SR leukemia = tested on: SR leukemia
SW-620 colon = tested on: SW-620 colon
TK-10 renal = tested on: TK-10 renal
U251 CNS = tested on: U251 CNS
UACC-257 melanoma = tested on: UACC-257 melanoma
UACC-62 melanoma = tested on: UACC-62 melanoma
UO-31 renal = tested on: UO-31 renal

Cc1cc(F)ccc1S(=O)(=O)Nc1cc(-c2c(O)ccc3ccccc23)c(O)c2ccccc12
GI50 (A498 renal): 3 µM
TGI (A498 renal): 9.75 µM
GI50 (A549 NSCLC): 3.76 µM
TGI (A549 NSCLC): 15.5 µM
GI50 (ACHN renal): 2.44 µM
TGI (ACHN renal): 8.03 µM
GI50 (BT-549 breast): 3.04 µM
TGI (BT-549 breast): 10.8 µM
GI50 (CAKI-1 renal): 2.5 µM
TGI (CAKI-1 renal): 10.9 µM
GI50 (CCRF-CEM leukemia): 3.26 µM
TGI (CCRF-CEM leukemia): 16.6 µM
GI50 (COLO 205 colon): 2.08 µM
TGI (COLO 205 colon): 4.94 µM
GI50 (DU-145 prostate): 4.09 µM
TGI (DU-145 prostate): 14.4 µM
GI50 (EKVX NSCLC): 1.93 µM
TGI (EKVX NSCLC): 7.45 µM
GI50 (HCC-2998 colon): 2.17 µM
TGI (HCC-2998 colon): 4.38 µM
GI50 (HCT-116 colon): 2.7 µM
TGI (HCT-116 colon): 11.3 µM
GI50 (HCT-15 colon): 2.68 µM
TGI (HCT-15 colon): 11.4 µM
GI50 (HL-60(TB) leukemia): 2.6 µM
TGI (HL-60(TB) leukemia): 6.19 µM
GI50 (HOP-62 NSCLC): 3.27 µM
TGI (HOP-62 NSCLC): 18.7 µM
GI50 (HOP-92 NSCLC): 0.292 µM
TGI (HOP-92 NSCLC): 2.82 µM
GI50 (HS 578T breast): 2.6 µM
TGI (HS 578T breast): 10.2 µM
GI50 (HT29 colon): 4.09 µM
TGI (HT29 colon): 21.1 µM
GI50 (IGROV1 ovarian): 2.89 µM
TGI (IGROV1 ovarian): 8.68 µM
GI50 (K-562 leukemia): 3.56 µM
TGI (K-562 leukemia): 13 µM
GI50 (KM12 colon): 1.93 µM
TGI (KM12 colon): 4.02 µM
GI50 (LOX IMVI melanoma): 2.91 µM
TGI (LOX IMVI melanoma): 10.8 µM
GI50 (M14 melanoma): 2.06 µM
TGI (M14 melanoma): 5.4 µM
GI50 (MALME-3M melanoma): 3.27 µM
TGI (MALME-3M melanoma): 12.1 µM
GI50 (MCF7 breast): 2.42 µM
TGI (MCF7 breast): 25.6 µM
GI50 (MDA-MB-231 breast): 2.64 µM
TGI (MDA-MB-231 breast): 13.8 µM
GI50 (MDA-MB-435): 3.18 µM
TGI (MDA-MB-435): 10.9 µM
GI50 (MOLT-4 leukemia): 3.33 µM
TGI (MOLT-4 leukemia): 14 µM
GI50 (NCI-H226 lung): 2.85 µM
TGI (NCI-H226 lung): 14.5 µM
GI50 (NCI-H23 lung): 2.77 µM
TGI (NCI-H23 lung): 13.3 µM
GI50 (NCI-H460 lung): 2.92 µM
TGI (NCI-H460 lung): 11.4 µM
GI50 (NCI-H522 lung): 1.77 µM
TGI (NCI-H522 lung): 4.77 µM
GI50 (NCI/ADR-RES ovarian): 3.05 µM
TGI (NCI/ADR-RES ovarian): 13.6 µM
GI50 (OVCAR-3 ovarian): 2.67 µM
TGI (OVCAR-3 ovarian): 10.3 µM
GI50 (OVCAR-4 ovarian): 2.21 µM
TGI (OVCAR-4 ovarian): 6.66 µM
GI50 (OVCAR-5 ovarian): 4.55 µM
TGI (OVCAR-5 ovarian): 17.4 µM
GI50 (OVCAR-8 ovarian): 3.65 µM
TGI (OVCAR-8 ovarian): > 100 µM
GI50 (PC-3 prostate): 1.37 µM
TGI (PC-3 prostate): 5.12 µM
GI50 (RPMI-8226 leukemia): 2.89 µM
TGI (RPMI-8226 leukemia): 24 µM
GI50 (RXF 393 renal): 2.53 µM
TGI (RXF 393 renal): 9.11 µM
GI50 (SF-268 CNS): 3.4 µM
TGI (SF-268 CNS): 14.3 µM
GI50 (SF-295 CNS): 3.02 µM
TGI (SF-295 CNS): 10.3 µM
GI50 (SF-539 CNS): 1.83 µM
TGI (SF-539 CNS): 3.59 µM
GI50 (SK-MEL-2 melanoma): 2 µM
TGI (SK-MEL-2 melanoma): 5.73 µM
GI50 (SK-MEL-28 melanoma): 3.12 µM
TGI (SK-MEL-28 melanoma): 9.74 µM
GI50 (SK-MEL-5 melanoma): 1.77 µM
TGI (SK-MEL-5 melanoma): 3.52 µM
GI50 (SK-OV-3 ovarian): 2.37 µM
TGI (SK-OV-3 ovarian): 11.6 µM
GI50 (SN12C renal): 2.8 µM
TGI (SN12C renal): 15.5 µM
GI50 (SNB-75 CNS): 2.32 µM
TGI (SNB-75 CNS): 11.7 µM
GI50 (SR leukemia): 3.21 µM
TGI (SR leukemia): 19.3 µM
GI50 (SW-620 colon): 2.48 µM
TGI (SW-620 colon): 11.8 µM
GI50 (TK-10 renal): 5.87 µM
TGI (TK-10 renal): 17.6 µM
GI50 (U251 CNS): 3.67 µM
TGI (U251 CNS): 15.5 µM
GI50 (UACC-257 melanoma): 2.6 µM
TGI (UACC-257 melanoma): 9.33 µM
GI50 (UACC-62 melanoma): 1.85 µM
TGI (UACC-62 melanoma): 4.54 µM
GI50 (UO-31 renal): 2.38 µM
TGI (UO-31 renal): 13.3 µM

C=C(C)[C@@H]1CC[C@]2(C(=O)N[C@H](CO)Cc3ccccc3)CC[C@]3(C)[C@H](CC[C@@H]4[C@@]5(C)CCCNC(C)(C)[C@@H]5CC[C@]43C)[C@@H]12
GI50 (A498 renal): 1.49 µM
TGI (A498 renal): 2.94 µM
GI50 (CAKI-1 renal): 1.49 µM
TGI (CAKI-1 renal): 2.89 µM
GI50 (HOP-92 NSCLC): 1.42 µM
TGI (HOP-92 NSCLC): 3.02 µM
GI50 (HT29 colon): 0.24 µM
TGI (HT29 colon): 0.539 µM
GI50 (KM12 colon): 1.47 µM
TGI (KM12 colon): 2.91 µM
GI50 (NCI-H522 lung): 1.75 µM
TGI (NCI-H522 lung): 3.35 µM
GI50 (SK-MEL-2 melanoma): 1.72 µM
TGI (SK-MEL-2 melanoma): 3.18 µM
GI50 (SK-MEL-5 melanoma): 1.67 µM
TGI (SK-MEL-5 melanoma): 3.07 µM
GI50 (SNB-75 CNS): 1.43 µM
TGI (SNB-75 CNS): 2.87 µM
GI50 (TK-10 renal): 1.61 µM
TGI (TK-10 renal): 3.08 µM
GI50 (UACC-257 melanoma): 1.78 µM
TGI (UACC-257 melanoma): 3.34 µM
GI50 (UACC-62 melanoma): 1.76 µM
TGI (UACC-62 melanoma): 3.39 µM

CC1NC(=O)C2Cc3ccc(O)c(c3)Oc3ccc(cc3)C(O)C(C(=O)N2C)N(C)C(=O)C(C)NC(=O)C(Cc2ccc(O)cc2)N(C)C(=O)C(C)NC1=O (stereo not drawn)
TGI (BT-549 breast): > 100 µM
TGI (HOP-92 NSCLC): > 100 µM
TGI (NCI-H23 lung): > 100 µM
TGI (UACC-257 melanoma): > 100 µM

COC(c1ccc(O)cc1)C1NC(=O)[C@H](CCC(N)=O)N(C)C(=O)[C@H](CC(C)C)NC(=O)[C@@H](CCCN=C(N)N)NC(=O)[C@H](C(C)O)NC(=O)[C@@H](NC(=O)[C@@H](NC(=O)[C@H](O)[C@H](O)[C@H](CCCN=C(N)N)NC(=O)[C@H](C)NC(=O)[C@H](C)[C@H](O)[C@@H](C)CC(C)C)[C@@H](C)[C@@H](C)C(N)=O)[C@@H](C)OC(=O)[C@H](C)N(C)C1=O (stereo partly drawn) (X43-A[γ4hArg(2R,3R-(OH)2)][Gln(3S,4R-Me2)]T[Thr(3ξ)][dR]L[NMeQ][X44][NMeA]; ester 4-C)
TGI (BT-549 breast): 0.737 µM
TGI (HOP-92 NSCLC): 0.614 µM
TGI (NCI-H226 lung): 0.912 µM
TGI (NCI-H23 lung): 0.201 µM
TGI (UACC-257 melanoma): 0.308 µM
